Source: patent US20190284168A1, “PYRAZOLE DERIVATIES AS SGC STIMULATORS” (IRONWOOD PHARMACEUTICALS, INC., priority 2014, published 2019)

Biological target: T1, sGC enzyme (Homo sapiens, UniProt Q02108+Q02153)
T1 construct: host or cells: HEK293 cells expressing GloSensor 40F cGMP
T1 sequence (Q02153 1-619): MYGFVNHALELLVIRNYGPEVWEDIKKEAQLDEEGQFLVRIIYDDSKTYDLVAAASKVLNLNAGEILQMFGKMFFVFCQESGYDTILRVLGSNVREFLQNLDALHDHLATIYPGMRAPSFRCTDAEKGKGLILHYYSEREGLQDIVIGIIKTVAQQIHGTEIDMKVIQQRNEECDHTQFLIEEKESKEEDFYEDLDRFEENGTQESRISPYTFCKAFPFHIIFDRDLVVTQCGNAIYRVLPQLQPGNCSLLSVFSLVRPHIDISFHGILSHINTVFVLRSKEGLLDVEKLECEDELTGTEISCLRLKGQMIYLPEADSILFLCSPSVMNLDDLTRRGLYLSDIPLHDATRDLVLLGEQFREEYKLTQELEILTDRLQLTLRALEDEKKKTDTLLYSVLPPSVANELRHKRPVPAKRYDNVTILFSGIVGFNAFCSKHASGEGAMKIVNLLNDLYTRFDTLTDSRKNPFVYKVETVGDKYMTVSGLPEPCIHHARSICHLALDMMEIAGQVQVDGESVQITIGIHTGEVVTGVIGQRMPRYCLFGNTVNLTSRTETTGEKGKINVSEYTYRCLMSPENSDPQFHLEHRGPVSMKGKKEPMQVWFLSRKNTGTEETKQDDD
T1 sequence (Q02108 1-690): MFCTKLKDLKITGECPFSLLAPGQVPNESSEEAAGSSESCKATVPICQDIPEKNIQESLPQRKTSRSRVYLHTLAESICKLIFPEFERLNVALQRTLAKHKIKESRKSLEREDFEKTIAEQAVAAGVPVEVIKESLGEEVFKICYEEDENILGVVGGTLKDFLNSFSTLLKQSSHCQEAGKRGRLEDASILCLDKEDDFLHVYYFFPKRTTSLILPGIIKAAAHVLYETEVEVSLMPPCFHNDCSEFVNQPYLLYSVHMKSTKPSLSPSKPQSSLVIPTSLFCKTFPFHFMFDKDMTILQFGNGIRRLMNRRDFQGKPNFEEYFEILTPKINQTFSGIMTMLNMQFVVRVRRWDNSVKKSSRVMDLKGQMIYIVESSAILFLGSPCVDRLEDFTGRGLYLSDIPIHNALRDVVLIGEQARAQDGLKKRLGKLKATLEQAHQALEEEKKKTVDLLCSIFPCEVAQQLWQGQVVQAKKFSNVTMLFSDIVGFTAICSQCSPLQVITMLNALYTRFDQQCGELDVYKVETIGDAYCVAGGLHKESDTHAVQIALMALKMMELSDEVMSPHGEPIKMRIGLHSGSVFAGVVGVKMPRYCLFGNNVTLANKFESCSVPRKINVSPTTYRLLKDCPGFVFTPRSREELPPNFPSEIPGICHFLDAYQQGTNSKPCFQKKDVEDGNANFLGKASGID
Assay: cGMP GloSensor cell-based assay, 384-well format
Conditions: read-out: sGC_HEK_GloSensor EC50/IC50 Abs (Norm) (nM) Binned (~)
Excerpt: Human embryonic kidney cells (HEK293) cells expressing GloSensor™ 40F cGMP (Part No: CS182801, Promega) were used to evaluate the activity of test compounds. The luminescent biosensors (engineered luciferase) that were incorporated into these cells detect cGMP formed by the compounds stimulating the sGC enzyme and emit luminescence.
cGMP GloSensor cells were maintained in Dulbecco's Modification of Eagle's Medium (DMEM) supplemented with fetal bovine serum (FBS) (10% final) and hygromycine (200 ug/ml). The day before assay, cells were plated in DMEM with 10% FBS in a 50 μL volume at a density of 1.5×10^4 cells/well in a poly-D-lysine coated 384-well flat white-bottom plate (Corning Cat No 35661). Cells were incubated overnight at 37° C. in a humidified chamber with 5% CO2. The next day, medium was removed and cells were replaced with 40 ul/well of GloSensor™, 2 mM (Promega Cat No E1291). Cells were treated for 90 minutes at 25° C. to allow the substrate to equilibrate in the cells. Test compounds and Diethylenetriamine NONOate (DETA-NONOate) was diluted to 3 mM (20×) in serum-free CO2 independent medium and serially diluted at 4× dilutions to create 5× dose curve from which 10 ul was added to the wells (x μM concentration for test compound solution and 10 μM concentration for DETA-NONOate solution; wherein x is one of the following final concentrations). • 30000 nM • 7500 nM • 1875 nM • 468.75 nM • 117.19 nM • 29.29 nM • 7.32 nM • 1.83 nM • 0.46 nM • 0.114 nM • 0.029 nM
For the kinetics studies, luminescense was measured right away for 0.2 sec per well with Envision (Perkin Elmer model No). For endpoint SAR screening, data were collected after 55 min incubation at room temperature.
Data analysis was carried out as indicated above in Example 2A.

EC50 [nM] | SMILES
> 1000 | Oc1nc(-c2cc(-c3ccon3)n(Cc3cccnc3)n2)ncc1F [Compound 189]
100 to 1000 | Nc1nc(-c2cc(-c3ccon3)n(Cc3ncccc3F)n2)ncc1F [Compound 146]
> 1000 | CC(=O)c1cc(-c2nncc(N)n2)nn1Cc1ccccc1F [Compound 198]
100 to 1000 | Cc1cc(Cn2nc(-c3ncc(F)c(O)n3)cc2-c2ccon2)on1 [Compound 190]
> 1000 | CCOC(=O)C(C)(C)c1nc(-c2cc(-c3ccon3)n(Cc3ccccc3F)n2)nnc1O [Compound 192]
< 100 | Cc1ccc(Cn2nc(-c3ncc(F)c(O)n3)cc2-c2ccon2)cc1 [Compound 185]
> 1000 | Oc1nc(-c2cc(-c3ccon3)n(CC(F)(F)F)n2)ncc1F [Compound 214]
< 100 | NCC(=O)OCCCCNc1nc(-c2cc(-c3ccon3)n(Cc3ccccc3F)n2)ncc1F [Compound 178, 4-((5-fluoro-2-(1-(2-fluorobenzyl)-5-(isoxazol-3-yl)-1H-pyrazol-3-yl)pyrimidin-4-yl)amino)butyl 2-aminoacetate]
< 100 | Cc1ccc(Cn2nc(-c3ncc(F)c(O)n3)cc2-c2ccon2)cc1F [Compound 188]
< 100 | COC(=O)C1CCN(c2nc(-c3cc(-c4ccon4)n(Cc4ccccc4F)n3)ncc2F)CC1 [Compound 171, methyl 1-(5-fluoro-2-(1-(2-fluorobenzyl)-5-(isoxazol-3-yl)-1H-pyrazol-3-yl)pyrimidin-4-yl)piperidine-4-carboxylate]
< 100 | O=C1C[C@H](O)C[C@@H](CCNc2nc(-c3cc(-c4ccon4)n(Cc4ccccc4F)n3)ncc2F)O1 [Compound 133, (4R,6R)-6-(2-((5-fluoro-2-(1-(2-fluorobenzyl)-5-(isoxazol-3-yl)-1H-pyrazol-3-yl)pyrimidin-4-yl)amino)ethyl)-4-hydroxytetrahydro-2H-pyran-2-one]
< 100 | CC(C)(C)OC(=O)C[C@H]1C[C@@H](CCNc2nc(-c3cc(-c4ccon4)n(Cc4ccccc4F)n3)ncc2F)OC(C)(C)O1 [Compound 132]
> 1000 | Oc1nc(-c2cc(-c3ccon3)n(Cc3ncccn3)n2)ncc1F [Compound 215]
100 to 1000 | Oc1nc(-c2cc(-c3ccon3)n(Cc3ccc(F)cc3)n2)ncc1F [Compound 213]
< 100 | NCC(=O)OC1CCN(c2nc(-c3cc(-c4ccon4)n(Cc4ccccc4F)n3)ncc2F)CC1 [Compound 173, 1-(5-fluoro-2-(1-(2-fluorobenzyl)-5-(isoxazol-3-yl)-1H-pyrazol-3-yl)pyrimidin-4-yl)piperidin-4-yl 2-aminoacetate]
< 100 | COC(=O)CCCNc1nc(-c2cc(-c3ccon3)n(Cc3ccccc3F)n2)ncc1F [Compound 174, methyl 4-((5-fluoro-2-(1-(2-fluorobenzyl)-5-(isoxazol-3-yl)-1H-pyrazol-3-yl)pyrimidin-4-yl)amino)butanoate]
> 1000 | Nc1ccnc(-c2cc(-c3ccon3)n(Cc3ncccc3F)n2)n1 [Compound 145]
> 1000 | Oc1nc(-c2cc(-c3ccon3)n(Cc3ncccc3F)n2)ncc1F [Compound 143, 5-fluoro-2-(1-((3-fluoropyridin-2-yl)methyl)-5-(isoxazol-3-yl)-1H-pyrazol-3-yl)pyrimidin-4(3H)-one]

EC50 [nM] | SMILES
< 100 | OCCN1CCN(c2nc(-c3cc(-c4ccon4)n(Cc4ccccc4F)n3)ncc2F)CC1 [Compound 170, 2-(4-(5-fluoro-2-(1-(2-fluorobenzyl)-5-(isoxazol-3-yl)-1H-pyrazol-3-yl)pyrimidin-4-yl)piperazin-1-yl)ethanol]
> 1000 | Cn1nccc1Cn1nc(-c2ncc(F)c(O)n2)cc1-c1ccon1 [Compound 212]
> 1000 | CC(=O)c1cc(-c2nncc(O)n2)nn1Cc1ccccc1F [Compound 201]
< 100 | O=c1[nH]c(-c2cc(-c3ccsn3)n(Cc3ccccc3F)n2)ncc1F [Compound 111]
< 100 | O[C@@H]1CN(c2nc(-c3cc(-c4ccon4)n(Cc4ccccc4F)n3)ncc2F)C[C@@H]1O [Compound 169, cis-1-(5-fluoro-2-(1-(2-fluorobenzyl)-5-(isoxazol-3-yl)-1H-pyrazol-3-yl)pyrimidin-4-yl)pyrrolidine-3,4-diol]
> 1000 | O=c1[nH]c(-c2cc(-c3ccon3)n(CCC(F)(F)C(F)(F)F)n2)ncc1F [Compound 128, 5-fluoro-2-(5-(isoxazol-3-yl)-1-(3,3,4,4,4-pentafluorobutyl)-1H-pyrazol-3-yl)pyrimidin-4(3H)-one]
< 100 | NCC(=O)OCCCNc1nc(-c2cc(-c3ccon3)n(Cc3ccccc3F)n2)ncc1F [Compound 177, 3-((5-fluoro-2-(1-(2-fluorobenzyl)-5-(isoxazol-3-yl)-1H-pyrazol-3-yl)pyrimidin-4-yl)amino)propyl 2-aminoacetate]
> 1000 | Fc1cnc(-c2cc(-c3ccon3)n(Cc3cccc(F)c3F)n2)nc1 [Compound 142]
100 to 1000 | CCOC(=O)C(C)(C)c1nnc(-c2cc(-c3ccon3)n(Cc3ccccc3F)n2)nc1O [Compound 191]
> 1000 | Oc1nc(-c2cc(-c3ccon3)n(Cc3cncnc3)n2)ncc1F [Compound 216]
< 100 | COC(=O)CCCCNc1nc(-c2cc(-c3ccon3)n(Cc3ccccc3F)n2)ncc1F [Compound 175, methyl 5-((5-fluoro-2-(1-(2-fluorobenzyl)-5-(isoxazol-3-yl)-1H-pyrazol-3-yl)pyrimidin-4-yl)amino)pentanoate]
100 to 1000 | O=C(O)C[C@H](O)C[C@H](O)CCNc1nc(-c2cc(-c3ccon3)n(Cc3ccccc3F)n2)ncc1F [Compound 134, (3R,5R)-7-((5-fluoro-2-(1-(2-fluorobenzyl)-5-(isoxazol-3-yl)-1H-pyrazol-3-yl)pyrimidin-4-yl)amino)-3,5-dihydroxyheptanoic acid]
> 1000 | Oc1nc(-c2cc(-c3ccon3)n(Cc3ccno3)n2)ncc1F [Compound 211]
< 100 | COC(=O)CCN(C)c1nc(-c2cc(-c3ccon3)n(Cc3ccccc3F)n2)ncc1F [Compound 172, methyl 3-((5-fluoro-2-(1-(2-fluorobenzyl)-5-(isoxazol-3-yl)-1H-pyrazol-3-yl)pyrimidin-4-yl)(methyl)amino)propanoate]
< 100 | CN(CC(O)c1ccc(O)c(O)c1)c1nc(-c2cc(-c3ccon3)n(Cc3ccccc3F)n2)ncc1F (stereo not drawn) [Compound 168, 4-(2-((5-fluoro-2-(1-(2-fluorobenzyl)-5-(isoxazol-3-yl)-1H-pyrazol-3-yl)pyrimidin-4-yl)(methyl)amino)-1-hydroxyethyl)benzene-1,2-diol]
100 to 1000 | CC(=O)c1cc(-c2ncc(F)c(NCC(F)(F)F)n2)nn1Cc1ccccc1F [Compound 204]
> 1000 | Cn1cc(Cn2nc(-c3ncc(F)c(O)n3)cc2-c2ccon2)cn1 [Compound 186]
100 to 1000 | Oc1nc(-c2cc(-c3ccon3)n(Cc3cccc(F)c3)n2)ncc1F [Compound 197]
